# Earlier results, collected in patent publication US20200108015A1, “Sustained Release Nitric Oxide in Intestinal Tract” (SKLAR PHARMA LLC, priority 2018, published 2020).
# Where two headings read alike, the source gives them in different places.
Structure (SMILES),half life (in vivo),half life (in the blood stream)
"NC(=O)NO [Hydroxyurea, hydroxyurea]",two,
CC(=O)Oc1ccccc1C(=O)O [aspirin],,about 30 minutes
